Source: patent US6897230B2, “Bicyclo[3/1/0] hexane containing oxazolidinone antibiotics and derivatives thereof” (Kyorin Pharmaceutical Co., Ltd., priority 2001, dated 2005)
Values after ≈ are worked out from the molar mass of the structure shown. Counter-ions that a name gives are not always drawn.

Experiments:
[1] = tested on: Enterococcus faecium VRQR (vancomycin resistant, quinolone resistant); experiment: MIC, agar dilution method; type: cell-based; conditions: Mueller-Hinton agar with 5% defibrinated horse blood, 5% CO2, 24 hours
Protocol: (§1) The following in vitro results were obtained based on an agar dilution method except for C. pneumoniae. The activity is presented as the minimum inhibitory concentration (MIC).
(§2) Streptococci and enterococci were tested on Mueller-Hinton agar supplemented with 5% defibrinated horse blood, using an approximate inoculum of 1×10^4 cfu/spot an incubation temperature of 35° C. in an atmosphere of 5% CO2 for 24 hours. The MIC was defined as the lowest concentration at which no visible bacterial growth was observed.

[2] = tested on: Streptococcus pneumoniae IID553; experiment: MIC, agar dilution method; type: cell-based; conditions: Mueller-Hinton agar with 5% defibrinated horse blood, 5% CO2, 24 hours
Protocol: as §1, §2

[3] = tested on: Streptococcus pneumoniae PRQR (penicillin resistant, quinolone resistant); experiment: MIC, agar dilution method; type: cell-based; conditions: Mueller-Hinton agar with 5% defibrinated horse blood, 5% CO2, 24 hours
Protocol: as §1, §2

[4] = tested on: Streptococcus pyogenes IID692; experiment: MIC, agar dilution method; type: cell-based; conditions: Mueller-Hinton agar with 5% defibrinated horse blood, 5% CO2, 24 hours
Protocol: as §1, §2

[5] = tested on: Staphylococcus aureus CR (chloramphenicol resistant); experiment: MIC, agar dilution method; type: cell-based; conditions: Mueller-Hinton agar, 35 C, 24 hours
Protocol: as §1
(§3) S. aureus and M. catarrhalis were tested on Mueller-Hinton agar, using an approximate inoculum of 1×10^4 cfu/spot an incubation temperature of 35 C. for 24 hours. The MIC was defined as the lowest concentration at which no visible bacterial growth was observed.

[6] = tested on: Staphylococcus aureus MR (methicillin resistant); experiment: MIC, agar dilution method; type: cell-based; conditions: Mueller-Hinton agar, 35 C, 24 hours
Protocol: as §1, §3

[7] = tested on: Staphylococcus aureus Smith; experiment: MIC, agar dilution method; type: cell-based; conditions: Mueller-Hinton agar, 35 C, 24 hours
Protocol: as §1, §3

[8] = tested on: Chlamydia pneumoniae ATCC VR-1360; experiment: MIC, inclusion formation in infected HeLa 229 cells; type: cell-based; conditions: ATCCVR1360, 72 hours, lowest concentration with no inclusion
Protocol: as §1
C. pneumoniae was tested using minimum essential medium supplemented with 10% heat-inactivated fetal bovine serum, 2 mM L-glutamine, […] cycloheximide and non essential amino acid. HeLa 229 cells were inoculated with 10^4 inclusion-forming units of C. pneumoniae strain per mL. Infected cells were incubated with test compounds in complete medium at 35C in an atmosphere of 5% CO2 for 72 hours. […] The MIC was defined as the lowest concentration at which no inclusion was observed.

[9] = tested on: Moraxella catarrhalis ATCC25238; experiment: MIC, agar dilution method; type: cell-based; conditions: Mueller-Hinton agar, 35 C, 24 hours
Protocol: as §1, §3

Row | Compound | MIC [1] [µg/mL] | MIC [2] [µg/mL] | MIC [3] [µg/mL] | MIC [4] [µg/mL] | MIC [5] [µg/mL] | MIC [6] [µg/mL] | MIC [7] [µg/mL] | MIC [8] [µg/mL] | MIC [9] [µg/mL] | melting point [°C]
1 | CC(=O)NC[C@H]1CN(c2ccc(C3=C[C@@H]4[C@@H](N)[C@@H]4C3)c(F)c2)C(=O)O1 (as salt: hydrochloride) [Example 50, N-[5(S)-3-[4-[(1α,5α,6α)-6-Aminobicyclo[3.1.0]hex-2-en-3-yl]-3-fluorophenyl]-2-oxooxazolidin-5-ylmethyl]acetamide Hydrochloride] | – | – | – | – | – | – | – | – | – | 215 to 220
2 | CC(=O)NC[C@H]1CN(c2ccc(N3CCOCC3)c(F)c2)C(=O)O1 [Linezolid, reference compound] | 2 (≈ 5.93 µM) | 2 (≈ 5.93 µM) | 1 (≈ 2.96 µM) | 1 (≈ 2.96 µM) | 16 (≈ 47.4 µM) | 1 (≈ 2.96 µM) | 1 (≈ 2.96 µM) | 8 (≈ 23.7 µM) | 4 (≈ 11.9 µM) | –
3 | CC(=O)NC[C@H]1CN(c2ccc(N3C[C@@H]4[C@@H](C#N)[C@@H]4C3)c(F)c2)C(=O)O1 [Example 46, N-[5(S)-3-[4-[(1α,5α,6α)-6-Cyano-3-azabicyclo[3.1.0]hexan-3-yl]-3-fluorophenyl]-2-oxooxazolidin-5-ylmethyl]acetamide] | 0.5 (≈ 1.4 µM) | 0.5 (≈ 1.4 µM) | 0.25 (≈ 0.698 µM) | 0.25 (≈ 0.698 µM) | 1 (≈ 2.79 µM) | 0.25 (≈ 0.698 µM) | 0.25 (≈ 0.698 µM) | – | 2 (≈ 5.58 µM) | –

Second part, the compound after the results:

Row | MIC [1] [µg/mL] | MIC [2] [µg/mL] | MIC [3] [µg/mL] | MIC [4] [µg/mL] | MIC [5] [µg/mL] | MIC [6] [µg/mL] | MIC [7] [µg/mL] | MIC [8] [µg/mL] | MIC [9] [µg/mL] | melting point [°C] | Compound
4 | 2 (≈ 5.74 µM) | 1 (≈ 2.87 µM) | 1 (≈ 2.87 µM) | 0.5 (≈ 1.44 µM) | 4 (≈ 11.5 µM) | 1 (≈ 2.87 µM) | 0.5 (≈ 1.44 µM) | 0.5 (≈ 1.44 µM) | – | – | CC(=O)NC[C@H]1CN(c2ccc(N3C[C@@H]4[C@@H](N)[C@@H]4C3)c(F)c2)C(=O)O1 [Example 8, N-[5(S)-3-[4-[(1α,5α,6α)-6-Amino-3-azabicyclo[3.1.0]hexan-3-yl]-3-fluorophenyl]-2-oxooxazolidin-5-ylmethyl]acetamide]
5 | 0.5 (≈ 1.33 µM) | 0.5 (≈ 1.33 µM) | 0.5 (≈ 1.33 µM) | 0.5 (≈ 1.33 µM) | 0.5 (≈ 1.33 µM) | 0.06 (≈ 0.159 µM) | 0.06 (≈ 0.159 µM) | – | 4 (≈ 10.6 µM) | – | CC(=O)NC[C@H]1CN(c2ccc(N3C[C@@H]4[C@@H](/C=N/O)[C@@H]4C3)c(F)c2)C(=O)O1 [Example 41, (E)-N-[5(S)-3-[3-Fluoro-4-[(1α,5α,6α)-6-[(hydroxyimino)methyl]-3-azabicyclo[3.1.0]hexan-3-yl]phenyl]-2-oxooxazolidin-5-ylmethyl]acetamide]
6 | 0.5 (≈ 1.38 µM) | 0.5 (≈ 1.38 µM) | 0.5 (≈ 1.38 µM) | 0.5 (≈ 1.38 µM) | 0.5 (≈ 1.38 µM) | 0.016 (≈ 0.0443 µM) | 0.06 (≈ 0.166 µM) | – | 2 (≈ 5.53 µM) | – | CC(=O)NC[C@H]1CN(c2ccc(N3C[C@@H]4[C@@H](C=O)[C@@H]4C3)c(F)c2)C(=O)O1 [Example 22, N-[5(S)-3-[3-Fluoro-4-[(1α,5α,6α)-6-formyl-3-azabicyclo[3.1.0]hexan-3-yl]phenyl]-2-oxooxazolidin-5-ylmethyl]acetamide]
